# Source: ChEMBL document CHEMBL1201862, “PubChem BioAssay data set” (2004)
#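 Method: 48-hour compound exposure of cells in 96-well plates, five concentrations, linear interpolation of endpoints. At the GI50, growth is halved.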 Activity calls are given as the source filed them. No stated cut-off is given here; in the data, active = GI50 up to about 1.1 µM and inactive = higher.
# What was measured:
# Test in all cases: DTP human tumour cell line panel, 48 h
# SK-MEL-5 = system: SK-MEL-5
# RPMI-8226 = system: RPMI-8226
# SF-268 = system: SF-268
# Malme-3M = system: Malme-3M
# LOX IMVI = system: LOX IMVI
# K562 = system: K562
# MOLT-4 = system: MOLT-4
# IGROV-1 = system: IGROV-1
# ACHN = system: ACHN
# SK-MEL-2 = system: SK-MEL-2
# NCI-H460 = system: NCI-H460
# SNB-75 = system: SNB-75
# SF-295 = system: SF-295
# CCRF-CEM = system: CCRF-CEM
# NCI-H23 = system: NCI-H23
# HCT-116 = system: HCT-116
# HCT-15 = system: HCT-15
# OVCAR-5 = system: OVCAR-5
# SK-MEL-28 = system: SK-MEL-28
# NCI-H226 = system: NCI-H226
Structure (SMILES),GI50 (SK-MEL-5),GI50 (RPMI-8226),GI50 (SF-268),GI50 (Malme-3M),GI50 (LOX IMVI),GI50 (K562),GI50 (MOLT-4),GI50 (IGROV-1),GI50 (ACHN),GI50 (SK-MEL-2),GI50 (NCI-H460),GI50 (SNB-75),GI50 (SF-295),GI50 (CCRF-CEM),GI50 (NCI-H23),GI50 (HCT-116),GI50 (HCT-15) [µM],GI50 (OVCAR-5),GI50 (SK-MEL-28),GI50 (NCI-H226)
Oc1ccnc(SCc2ccc(Cl)cc2)n1,> 100 µM (inactive),56.1 µM (inactive),> 100 µM (inactive),> 100 µM (inactive),> 100 µM (inactive),> 100 µM (inactive),63.7 µM (inactive),> 100 µM (inactive),> 100 µM (inactive),> 100 µM (inactive),> 100 µM (inactive),> 100 µM (inactive),87.1 µM (inactive),> 100 µM (inactive),> 100 µM (inactive),> 100 µM (inactive),> 100,> 100 µM (inactive),> 100 µM (inactive),
Cc1cc(C)nc(NS(=O)(=O)c2ccc(NC(=O)c3cccc4c(Nc5ccc(S(=O)(=O)Nc6cc(C)on6)cc5)c5ccccc5nc34)cc2)n1,,,19.7 µM (inactive),18 µM (inactive),18.9 µM (inactive),28.7 µM (inactive),25.4 µM (inactive),,38.6 µM (inactive),19.5 µM (inactive),25.6 µM (inactive),23.3 µM (inactive),,28.8 µM (inactive),18.3 µM (inactive),25.9 µM (inactive),,16.7 µM (inactive),20.7 µM (inactive),
CSc1sc(C)cc1-c1nsc(=O)o1,> 100 µM (inactive),> 100 µM (inactive),> 100 µM (inactive),> 100 µM (inactive),> 100 µM (inactive),> 100 µM (inactive),> 100 µM (inactive),> 100 µM (inactive),> 100 µM (inactive),,> 100 µM (inactive),,> 100 µM (inactive),> 100 µM (inactive),> 100 µM (inactive),> 100 µM (inactive),> 100,> 100 µM (inactive),> 100 µM (inactive),
COc1ccc(NC(=O)C(=O)NNC(=O)c2sc(NNC(C)=O)nc2C)c([N+](=O)[O-])c1,> 100 µM (inactive),65.9 µM (inactive),51.8 µM (inactive),> 100 µM (inactive),40.6 µM (inactive),37.1 µM (inactive),36 µM (inactive),> 10 µM (inactive),45.5 µM (inactive),> 100 µM (inactive),> 100 µM (inactive),,> 100 µM (inactive),24.2 µM (inactive),> 100 µM (inactive),> 100 µM (inactive),91.6,> 100 µM (inactive),> 100 µM (inactive),> 100 µM (inactive)
COc1cc2cnc3c4cc(OC(C)C)c(OC)cc4ccc3c2cc1OC,> 100 µM (inactive),> 100 µM (inactive),> 100 µM (inactive),> 100 µM (inactive),,> 100 µM (inactive),> 100 µM (inactive),> 100 µM (inactive),> 100 µM (inactive),> 100 µM (inactive),> 100 µM (inactive),> 100 µM (inactive),> 100 µM (inactive),> 100 µM (inactive),> 100 µM (inactive),> 100 µM (inactive),> 100,> 100 µM (inactive),> 100 µM (inactive),
CCOC(=O)CCC1(C(=O)OCC)CCCCC1=O (stereo not given),> 100 µM (inactive),> 100 µM (inactive),> 100 µM (inactive),> 100 µM (inactive),> 100 µM (inactive),> 100 µM (inactive),> 100 µM (inactive),> 100 µM (inactive),> 100 µM (inactive),> 100 µM (inactive),> 100 µM (inactive),> 100 µM (inactive),> 100 µM (inactive),> 100 µM (inactive),> 100 µM (inactive),> 100 µM (inactive),,> 100 µM (inactive),> 100 µM (inactive),
CCOC(=O)Cc1cc(OC)c(OC)cc1/C(Cl)=C(\CO)c1ccc(OC)c(OC)c1,30.7 µM (inactive),37.5 µM (inactive),,> 100 µM (inactive),87.9 µM (inactive),> 100 µM (inactive),> 100 µM (inactive),> 100 µM (inactive),81.1 µM (inactive),,> 100 µM (inactive),23.8 µM (inactive),39.8 µM (inactive),> 100 µM (inactive),97.7 µM (inactive),> 100 µM (inactive),> 100,,78 µM (inactive),
CN(C)CCCNC(=S)S,> 100 µM (inactive),> 100 µM (inactive),> 100 µM (inactive),> 100 µM (inactive),> 100 µM (inactive),> 100 µM (inactive),> 100 µM (inactive),> 100 µM (inactive),> 100 µM (inactive),> 100 µM (inactive),> 100 µM (inactive),,> 100 µM (inactive),> 100 µM (inactive),> 100 µM (inactive),> 100 µM (inactive),> 100,> 100 µM (inactive),> 100 µM (inactive),> 100 µM (inactive)
COC(=O)C12C3C4C1C1C2C3C41C(=O)O (stereo not given),> 100 µM (inactive),> 100 µM (inactive),> 100 µM (inactive),> 100 µM (inactive),,> 100 µM (inactive),> 100 µM (inactive),> 100 µM (inactive),> 100 µM (inactive),,> 100 µM (inactive),,> 100 µM (inactive),> 100 µM (inactive),> 100 µM (inactive),,> 100,> 100 µM (inactive),> 100 µM (inactive),> 100 µM (inactive)
Nc1ncnc2c1ncn2C1C(O)C=C(CO)C1O (stereo not given),> 625 µM (inactive),> 625 µM (inactive),> 625 µM (inactive),> 625 µM (inactive),> 625 µM (inactive),,,> 625 µM (inactive),,> 625 µM (inactive),> 625 µM (inactive),,> 625 µM (inactive),,,> 625 µM (inactive),> 625,,,> 625 µM (inactive)
OC1(c2ccc(Cl)cc2)c2ccc3ccccc3c2C2=N[C@H]3CCCC[C@@H]3N21 (stereo not given in full),37 µM (inactive),7.73 µM (inactive),9.02 µM (inactive),0.284 µM (active),3.24 µM (inactive),13.2 µM (inactive),8.99 µM (inactive),13.5 µM (inactive),18.3 µM (inactive),38.5 µM (inactive),13.3 µM (inactive),,3.64 µM (inactive),21.7 µM (inactive),37 µM (inactive),3.27 µM (inactive),4.75,3.76 µM (inactive),> 100 µM (inactive),43.8 µM (inactive)
O=c1c2cc(I)ccc2nc(-c2cccs2)n1O,45.1 µM (inactive),27 µM (inactive),38.4 µM (inactive),,28.1 µM (inactive),48.3 µM (inactive),34.8 µM (inactive),30.5 µM (inactive),46.3 µM (inactive),48.6 µM (inactive),36.6 µM (inactive),,31.1 µM (inactive),27.7 µM (inactive),24.2 µM (inactive),38.8 µM (inactive),33.9,44.8 µM (inactive),65.8 µM (inactive),52.6 µM (inactive)
